Source: patent publication US20240174618A1, “SUBSTITUTED (2-HETEROARYLOXYPHENYL)SULFONATES, SALTS THEREOF AND THEIR USE AS HERBICIDAL AGENTS” (Bayer Aktiengesellschaft, priority 2021, published 2024)

Assays:
Assay type in all cases: in vivo
[1] = tested on: Alopecurus myosuroides (ALOMY); test: A. Herbicidal pre-emergence efficacy, ALOMY; settings: scored visually after about 3 weeks vs untreated controls
Summary of the method: (§1)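 Pre-emergence soil-surface spray in sandy loam pots, WP/EC in water plus 0.5% additive, 600 L/ha. Visual % damage rating after about 3 weeks in greenhouse vs. untreated; 0% = control-like, 100% = dead plants. Rates up to 1280 g/ha.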

Lolium rigidum (LOLRI) [2] = test: A. Herbicidal pre-emergence efficacy, LOLRI
Summary of the method: as §1

[3] = tested on: Matricaria inodora (MATIN); test: A. Herbicidal pre-emergence efficacy, MATIN
Summary of the method: as §1

[4] = tested on: Amaranthus retroflexus (AMARE); test: A. Herbicidal pre-emergence efficacy, AMARE
Summary of the method: as §1

Kochia scoparia (KCHSC) = test: B. Herbicidal post-emergence efficacy, KCHSC; settings: for Post-emergence efficacy against KCHSC in %: rated visually after about 3 weeks; for Post-emergence efficacy against KCHSC: 1280 g/ha
Summary of the method: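 Readout: visual % kill vs untreated, ~3 wk post-spray. Plants in sandy loam pots, treated at one-leaf stage; spray = WP/EC in water + 0.5% additive, 600 L/ha, dose ≤1280 g/ha.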

Lolium rigidum (LOLRI) [5] = test: C. Herbicidal pre-emergence efficacy, LOLRI; settings: scored after about 3 weeks
Summary of the method: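 Pre-emergence test: formulated compounds sprayed as aqueous suspension or emulsion with 0.5% additive at 600 l/ha onto soil covering sown seeds, at rates corresponding to 320 g/ha or less. After about 3 weeks in greenhouse, efficacy scored visually as percent versus untreated controls (100% = plants dead).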

[6] = tested on: Digitaria sanguinalis (DIGSA); test: A. Herbicidal pre-emergence efficacy, DIGSA; settings: scored visually after about 3 weeks vs untreated controls
Summary of the method: as §1

[7] = pre-emergence, dosage 1280 g/ha
[8] = 320 g/ha, scored visually after about 3 weeks vs untreated controls

Row | Structure (SMILES) | Pre-emergence efficacy against ALOMY ([1]; 1280 g/ha) [%] | Pre-emergence efficacy against LOLRI (Lolium rigidum (LOLRI) [2]; dosage 320 g/ha) [%] | Pre-emergence efficacy against LOLRI (Lolium rigidum (LOLRI) [2]; dosage 1280 g/ha) [%] | Pre-emergence efficacy against MATIN [3, 7] [%] | Pre-emergence efficacy against AMARE in % ([4]; 80 g/ha) [%] | Pre-emergence efficacy against AMARE in % ([4]; 320 g/ha) [%] | Pre-emergence efficacy against AMARE in % ([4]; 1280 g/ha) [%] | Post-emergence efficacy against KCHSC in % (Kochia scoparia (KCHSC); 80 g/ha) [%] | Post-emergence efficacy against KCHSC in % (Kochia scoparia (KCHSC); 320 g/ha) [%] | Post-emergence efficacy against KCHSC (Kochia scoparia (KCHSC)) [%] | Pre-emergence efficacy against LOLRI (Lolium rigidum (LOLRI) [5]; 80 g/ha) [%] | Pre-emergence efficacy against LOLRI (Lolium rigidum (LOLRI) [5]; 320 g/ha) [%] | Pre-emergence efficacy against MATIN [3, 8] [%] | Pre-emergence efficacy against ALOMY ([1]; 320 g/ha) [%] | Pre-emergence efficacy against DIGSA ([6]; 80 g/ha) [%] | Pre-emergence efficacy against DIGSA ([6]; 320 g/ha) [%] | Pre-emergence efficacy against DIGSA ([6]; 1280 g/ha) [%]
1 | CCCCS(=O)(=O)Oc1ccccc1Oc1ncc(Cl)cn1 [Example I-6] | 90 | 90 | 90 | 100 | 100 | 100 | 100 | 90 | 90 | 90 | 80 | 100 | – | – | – | – | –
2 | O=S(=O)(CCC(F)(F)F)Oc1ccccc1Oc1ncc(Cl)cn1 [Example I-8] | 90 | 90 | 90 | 100 | 90 | 90 | 100 | 90 | 90 | 90 | – | 100 | 90 | – | – | – | –
3 | O=S(=O)(CCCC(F)(F)F)Oc1ccccc1Oc1ncc(Cl)cn1 [Example I-10] | 90 | 90 | 90 | 100 | 100 | 100 | 100 | 90 | 90 | 90 | 90 | 100 | 100 | 90 | – | – | –
4 | O=S(=O)(CCCCl)Oc1c(F)cccc1Oc1ncc(Cl)cn1 [Example I-14] | 100 | 100 | 100 | 100 | 100 | 100 | 100 | 100 | 100 | 100 | – | 100 | – | 90 | 100 | 100 | 100
5 | O=S(=O)(CC1CC1)Oc1ccccc1Oc1ncc(Cl)cn1 [Example I-23] | 90 | 90 | 90 | 100 | 90 | 100 | 100 | 100 | 100 | 100 | – | 100 | 90 | – | 90 | 100 | 100
